Results taken from ChEMBL document CHEMBL3286092, “Discovery of 1-arylpyrrolidone derivatives as potent p53-MDM2 inhibitors based on molecule fusing strategy” (Bioorg Med Chem Lett, 2014).

Key:
[1] = molecular target: E3 ubiquitin-protein ligase Mdm2 (Homo sapiens, UniProt Q00987); experiment: Binding affinity to MDM2 (unknown origin) assessed as inhibition of interaction with p53 after 1 hr by fluorescence polarization binding assay
A549 = experiment: Induction of p53 level in human A549 cells after 4 hrs by Western blotting analysis; type: functional, cell-based

Chain of E3 ubiquitin-protein ligase Mdm2 (Q00987 whole entry): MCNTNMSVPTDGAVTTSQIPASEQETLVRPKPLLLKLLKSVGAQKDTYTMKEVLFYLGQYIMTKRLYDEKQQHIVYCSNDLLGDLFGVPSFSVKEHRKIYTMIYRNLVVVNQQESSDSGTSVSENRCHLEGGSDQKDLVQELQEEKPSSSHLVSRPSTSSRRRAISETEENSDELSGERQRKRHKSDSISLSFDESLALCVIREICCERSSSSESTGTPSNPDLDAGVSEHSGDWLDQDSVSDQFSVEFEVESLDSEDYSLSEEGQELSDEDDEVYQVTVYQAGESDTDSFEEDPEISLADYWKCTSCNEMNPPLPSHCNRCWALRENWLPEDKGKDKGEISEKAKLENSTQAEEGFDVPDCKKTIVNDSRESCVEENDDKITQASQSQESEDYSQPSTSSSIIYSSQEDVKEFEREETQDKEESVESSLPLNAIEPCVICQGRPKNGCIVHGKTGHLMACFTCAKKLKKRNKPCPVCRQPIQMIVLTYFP

With `CC(C)OC1=C(C(=O)c2ccccc2)C(c2ccc(Br)cc2)N(Cc2ccc(C(F)(F)F)cc2F)C1=O` (stereo not given) the Ki [1] was over 100 µM.
For `CC(C)OC1=C(C(=O)c2ccccc2)C(c2ccc(Br)cc2)N(Cc2ccc(C(F)(F)F)cc2OC(C)C)C1=O` (stereo not given), the Ki [1] was over 100 µM.
Work on `C[C@@H](NC1=C(C(=O)c2ccccc2)C(c2ccc(Br)cc2)N(Cc2ccc(C(F)(F)F)cc2F)C1=O)c1ccccc1` (stereo not given in full) yielded a Ki [1] of over 100 µM.
`COc1cc(C(F)(F)F)ccc1CN1C(=O)C(N[C@H](C)c2ccccc2)=C(C(=O)c2ccccc2)C1c1ccc(Br)cc1` (stereo not given in full) was tested, and the Ki [1] was over 100 µM.
With `CC(C)Oc1cc(C(F)(F)F)ccc1CN1C(=O)C(N[C@H](C)c2ccccc2)=C(C(=O)c2ccccc2)C1c1ccc(Br)cc1` (stereo not given in full) the Activity (A549) was “Dose-dependent effect”.
